What follows are molecules tested against IDO (Homo sapiens, UniProt P14902) (assay: LLE_IDO_ABS_DR (IDO assay)).
Sequence of IDO (P14902 whole entry): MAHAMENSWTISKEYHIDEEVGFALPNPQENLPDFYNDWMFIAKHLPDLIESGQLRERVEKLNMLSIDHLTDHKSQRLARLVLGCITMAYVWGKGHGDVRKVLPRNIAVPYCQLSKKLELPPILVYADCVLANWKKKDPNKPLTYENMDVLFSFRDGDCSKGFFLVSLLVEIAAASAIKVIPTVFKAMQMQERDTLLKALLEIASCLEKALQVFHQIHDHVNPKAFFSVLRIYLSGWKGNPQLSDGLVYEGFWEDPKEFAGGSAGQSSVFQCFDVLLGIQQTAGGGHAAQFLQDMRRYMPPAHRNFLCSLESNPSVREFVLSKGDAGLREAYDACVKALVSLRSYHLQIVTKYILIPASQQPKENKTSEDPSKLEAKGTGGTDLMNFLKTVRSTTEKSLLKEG

| Compound | IC50 |
| --- | --- |
| CC(C)CN(CC(C)C)c1ccc(-c2ccccc2-c2nnn[nH]2)cc1NC(=O)Nc1cc(F)cc(Cl)c1 [Example 251, 1-(3-chloro-5-fluorophenyl)-3-(4-(diisobutylamino)-2′-(1H-tetrazol-5-yl)-[1,1′-biphenyl]-3-yl)urea] | 0.09 µM |
| CC1CC(C)CN(c2ccc(-c3ccccc3-c3nnn[nH]3)cc2NC(=O)Nc2ccc(F)cc2)C1 (stereo not shown) [Example 236] | 2.14 µM |
| O=C(Nc1ccc(C2CC2)cc1)Nc1cc(-c2ccccc2-c2nnn[nH]2)ccc1N1CCC(F)(F)C1 [Example 347, 1-(4-cyclopropylphenyl)-3-(4-(3,3-difluoropyrrolidin-1-yl)-2′-(1H-tetrazol-5-yl)-[1,1′-biphenyl]-3-yl)urea] | 5.26 µM |
| CC(C)CN(CC(C)C)c1ccc(-c2ccccc2-c2nnn[nH]2)cc1NC(=O)Nc1cc(C(N)=O)ccc1Cl [Example 254, 4-chloro-3-(3-(4-(diisobutylamino)-2′-(1H-tetrazol-5-yl)-[1,1′-biphenyl]-3-yl)ureido)benzamide] | 6.07 µM |
| Cc1ccc(NC(=O)Nc2cc(-c3ccccc3-c3nnn[nH]3)ccc2N(CCC(C)C(F)(F)F)CC(C)C)cc1 (stereo not shown) [Example 202, 1-(4-(isobutyl(4,4,4-trifluoro-3-methylbutyl)amino)-2′-(1H-tetrazol-5-yl)-[1,1′-biphenyl]-3-yl)-3-(p-tolyl)urea] | 0.01 µM |
| O=C(Nc1ccc(C2CC2)cc1)Nc1cc(-c2ccccc2-c2nnn[nH]2)ccc1N(CCc1ccccc1)CCC(F)(F)F [Example 298, 1-(4-cyclopropylphenyl)-3-(4-(phenethyl(3,3,3-trifluoropropyl)amino)-2′-(1H-tetrazol-5-yl)-[1,1′-biphenyl]-3-yl)urea] | 0.08 µM |
| CC(C)CN(CC(C)C)c1ccc(-c2ccccc2-c2nnn[nH]2)cc1NC(=O)Nc1cccc(-n2ccnc2)c1 [Example 267, 1-(3-(1H-imidazol-1-yl)phenyl)-3-(4-(diisobutylamino)-2′-(1H-tetrazol-5-yl)-[1,1′-biphenyl]-3-yl)urea] | 1.46 µM |
| Cc1ccc(NC(=O)Nc2cc(-c3ccccc3C(=O)O)ccc2N(CC(C)C)CC(F)(F)F)cc1 [Example 474] | 0.09 µM |
| Cc1ccc(NC(=O)Nc2cc(-c3ccc(F)cc3C(=O)O)ccc2N(CC(C)C)CC(C)C)cc1 [Example 70, 4′-(diisobutylamino)-4-fluoro-3′-(3-p-tolylureido)biphenyl-2-carboxylic acid] | 0.11 µM |
| O=C(Nc1cc(-c2ccccc2-c2nnn[nH]2)ccc1N(CCC(F)(F)F)Cc1ccc(F)cc1)Nc1ccccc1C(F)(F)F [Example 326, 1-(4-((4-fluorobenzyl)(3,3,3-trifluoropropyl)amino)-2′-(1H-tetrazol-5-yl)-[1,1′-biphenyl]-3-yl)-3-(2-(trifluoromethyl)phenyl)urea] | 1.33 µM |
| Cc1ccc(NC(=O)Nc2cc(-c3cc(F)ccc3C(=O)O)ccc2N(CC(C)C)C(C)C)cc1 [Example 149, 5-fluoro-4′-(isobutyl(isopropyl)amino)-3′-(3-p-tolylureido)biphenyl-2-carboxylic acid] | 0.06 µM |
| Cc1ccc(NC(=O)Nc2cc(-c3ccccc3-c3nnn[nH]3)ccc2N(CC(C)C)CC(C)C)cc1F [Example 287, 1-(4-(diisobutylamino)-2′-(1H-tetrazol-5-yl)-[1,1′-biphenyl]-3-yl)-3-(3-fluoro-4-methylphenyl)urea] | 0.00447 µM |
| Cc1ccc(NC(=O)Nc2cc(-c3ccccc3-c3nnn[nH]3)ccc2N(Cc2ccccc2)CC(C)C)cc1 [Example 292, 1-(4-(benzyl(isobutyl)amino)-2′-(1H-tetrazol-5-yl)-[1,1′-biphenyl]-3-yl)-3-(p-tolyl)urea] | 0.00403 µM |
| CC(C)CN(CC(C)C)c1ccc(-c2ccccc2-c2nnn[nH]2)cc1NC(=O)Nc1ccc2ncsc2c1 [Example 143, 1-(benzo[d]thiazol-6-yl)-3-(4-(diisobutylamino)-2′-(1H-tetrazol-5-yl)biphenyl-3-yl)urea] | 0.15 µM |
| CCN(CC(C)(C)C)c1ccc(-c2ccccc2-c2nnn[nH]2)cc1NC(=O)Nc1ccccc1F [Example 112, 1-(4-(ethyl(neopentyl)amino)-2′-(1H-tetrazol-5-yl)biphenyl-3-yl)-3-(2-fluorophenyl)urea] | 0.03 µM |
| CCCN(c1ccc(-c2ccccc2C(=O)O)cc1NC(=O)Nc1ccc(C)cc1)C1CCCC1 [Example 165, 4′-(cyclopentyl(propyl)amino)-3′-(3-p-tolylureido)biphenyl-2-carboxylic acid] | 0.01 µM |
| CC(C)CN(CC(C)C)c1ccc(-c2ccccc2-c2nnn[nH]2)cc1NC(=O)Nc1c(F)cc(Cl)cc1F [Example 243, 1-(4-chloro-2,6-difluorophenyl)-3-(4-(diisobutylamino)-2′-(1H-tetrazol-5-yl)-[1,1′-biphenyl]-3-yl)urea] | 0.00076 µM |
| Cc1ccc(NC(=O)Nc2cc(-c3ccccc3C(=O)O)ccc2N(C)C2CCC(F)(F)CC2)cc1 [Example 104, 4′-((4,4-difluoro-cyclohexyl) (methyl)amino)-3′-(3-p-tolylureido)biphenyl-2-carboxylic acid] | 0.1 µM |
| Cc1ccc(NC(=O)Nc2cc(-c3cccc(C(=O)O)c3)ccc2N(CC(C)C)CC2CCC2)cc1 [Example 97, 4′-((cyclobutylmethyl) (isobutyl)amino)-3′-(3-p-tolylureido)biphenyl-3-carboxylic acid] | 4.64 µM |

| Compound | IC50 |
| --- | --- |
| Cc1ccc(NC(=O)Nc2cc(-c3ccccc3-c3nnn[nH]3)ccc2N(CCC(C)(C)O)Cc2ccc(Cl)cc2)cc1 [Example 375] | 4.74 µM |
| O=C(Nc1ccc(C2CC2)c(F)c1)Nc1cc(-c2ccccc2-c2nnn[nH]2)ccc1N(CCC(F)(F)F)Cc1ccc(Cl)cc1Cl [Example 351, 1-(4-cyclopropyl-3-fluorophenyl)-3-(4-((2,4-dichlorobenzyl)(3,3,3-trifluoropropyl)amino)-2′-(1H-tetrazol-5-yl)-[1,1′-biphenyl]-3-yl)urea] | 0.35 µM |
| CC(C)CN(c1cc(F)c(-c2cc(F)ccc2C(=O)O)cc1NC(=O)Nc1ccc(F)cc1F)C1CCCCC1 [Example 226, 4′-(cyclohexyl(isobutyl)ami-no)-5′-(3-(2,4-difluorophenyl)ureido)-2′,5-difluoro-[1,1′-biphenyl]-2-carboxylic acid] | 0.00267 µM |
| CC(C)CN(CC(C)C)c1ccc(-c2ccccc2C(=O)O)cc1NC(=O)Nc1ccc(F)cc1F [Example 138, 3′-(3-(2,4-difluorophenyl)ureido)-4′-(diisobutylamino) biphenyl-2-carboxylic acid] | 0.00624 µM |
| Cc1ccc(NC(=O)Nc2cc(-c3ccccc3-c3nnn[nH]3)ccc2N(CC(C)C)CC(F)(F)F)cc1 [Example 475] | 0.05 µM |
| C#Cc1ccccc1NC(=O)Nc1cc(-c2ccccc2-c2nnn[nH]2)ccc1N(CC(C)C)CC(C)C [Example 277, 1-(4-(diisobutylamino)-2′-(1H-tetrazol-5-yl)-[1,1′-biphenyl]-3-yl)-3-(2-ethynylphenyl)urea] | 0.16 µM |
| Cc1ccc(NC(=O)Nc2cc(-c3cnccc3C(=O)O)ccc2N(CC(C)C)CC(C)C)cc1 [Example 151, 3-(4-(diisobutylamino)-3-(3-p-tolylureido)phenyl) isonicotinic acid] | 4.62 µM |
| Cc1ccc(NC(=O)Nc2cc(-c3scnc3C(=O)O)ccc2N(CC(C)C)CC(C)C)cc1 [Example 103, 5-(4-(diisobutylamino)-3-(3-p-tolylureido)phenyl)thiazole-4-carboxylic acid] | 1.76 µM |
| CC(C)CN(CC(C)C)c1ccc(-c2ccccc2-c2nnn[nH]2)cc1NC(=O)Nc1ccccc1N1CCCCC1 [Example 270, 2-(4-(diisobutylamino)-2′-(1H-tetrazol-5-yl)-[1,1′-biphenyl]-3-yl)-3-(2-(piperidin-1-yl)phenyl)urea] | 1.83 µM |
| CC(C)CN(CC(C)C)c1ccc(-c2ccccc2-c2nnn[nH]2)cc1NC(=O)NCC(C)(C)C [Example 141, 1-(4-(diisobutylamino)-2′-(1H-tetrazol-5-yl)biphenyl-3-yl)-3-neopentylurea] | 0.43 µM |
| Cc1ccc(NC(=O)Nc2cc(-c3ccccc3-c3nnn[nH]3)ccc2N2CCCc3ccccc32)cn1 [Example 362, 1-(4-(3,4-Dihydroquinolin-1(2H)-yl)-2′-(1H-tetrazol-5-yl)-[1,1′-biphenyl]-3-yl)-3-(6-methylpyridin-3-yl)urea] | 5.49 µM |
| CC(C)CN(CC(C)C)c1ccc(-c2ccccc2-c2nnn[nH]2)cc1NC(=O)NCC1CC1 [Example 142, 1-(cyclopropylmethyl)-3-(4-(diisobutylamino)-2′-(1H-tetrazol-5-yl)biphenyl-3-yl)urea] | 0.95 µM |
| Cc1ccc(NC(=O)Nc2cc(-c3ccccc3-c3nnn[nH]3)ccc2N(CCC(C)C(F)(F)F)C2CCCCC2)cc1 (stereo not shown) [Example 190, 1-(4-(cyclohexyl(4,4,4-trifluoro-3-methylbutyl)amino)-2′-(1H-tetrazol-5-yl)-[1,1′-biphenyl]-3-yl)-3-(p-tolyl)urea] | 0.08 µM |
| C#CCOc1cccc(NC(=O)Nc2cc(-c3ccccc3-c3nnn[nH]3)ccc2N(CC(C)C)CC(C)C)c1 [Example 242, 1-(4-(diisobutylamino)-2′-(1H-tetrazol-5-yl)-[1,1′-biphenyl]-3-yl)-3-(3-(prop-2-yn-1-yloxy)phenyl)urea] | 0.00472 µM |
| Cc1ccc(NC(=O)Nc2cc(-c3ccccc3C(=O)O)ccc2N(CCC(F)(F)F)CC2CC2)cc1 [Example 64, 4′-((cyclopropylmethyl) (3,3,3-trifluoropropyl)amino)-3′-(3-p-tolylureido)biphenyl-2-carboxylic acid] | 0.29 µM |
| O=C(Nc1ccc(F)nc1)Nc1cc(-c2ccccc2-c2nnn[nH]2)ccc1N1CCC(c2ccccc2)C1 (racemic) [Example 371, (±)-1-(6-Fluoropyridin-3-yl)-3-(4-(3-phenylpyrrolidin-1-yl)-2′-(1H-tetrazol-5-yl)-[1,1′-biphenyl]-3-yl)urea] | 3.74 µM |
| CC(C)CN(CC(C)C)c1ccc(-c2ccccc2-c2nnn[nH]2)cc1NC(=O)Nc1cccc2cnccc12 [Example 247, 1-(4-(diisobutylamino)-2′-(1H-tetrazol-5-yl)-[1,1′-biphenyl]-3-yl)-3-(isoquinolin-5-yl)urea] | 2.76 µM |
| CC(C)CN(CC(C)C)c1ccc(-c2ccccc2-c2nnn[nH]2)cc1NC(=O)Nc1ccc(S(C)(=O)=O)cc1F [Example 284, 1-(4-(diisobutylamino)-2′-(1H-tetrazol-5-yl)-[1,1′-biphenyl]-3-yl)-3-(2-fluoro-4-(methylsulfonyl)phenyl)urea] | 2.09 µM |

From US9758492B2, “IDO inhibitors” (Bristol-Myers Squibb Company, priority 2013, dated 2017)
